For series [1], the system named is HCT15/CL02. The series is described as follows: SRB cytotoxicity test, HCT15/CL02. The class given is cell-based, human. Particulars: Table 4, 48 hours; for IC50: Homo sapiens, HCT-15. How it is done:
To determine the cytotoxicity against human tumor cell line of the test samples prepared in Examples, following sulforhodamin B (SRB) bioassy test was performed according to the method disclosed in the literature (Skehan, P., et al., J. Natl. […] The inoculated cell lines were incubated in CO2 incubator (MCO-20AIC, SANYO Electric Co., LTd.) to be attached on the bottom of incubator and the culture media was removed with aspirator. 6 logarithmic concentrations of the diluted test samples were added to each well containing cell line at 100 μl/well in a three fold dilution manner and the cell was incubated for 48 hours. […] The cell plates were shaked with titer plate shaker (KOMA Orbital Shaker KE011, KOMABIOTech) for 10 mins to exude the staining solution and to determine the absorbance at 520 nm using by microplate spectrophotometer (Sunrise, TECAN).
A general note: Sulforhodamine B stains cellular protein and so reports cell mass.

For series [2], the system named is MES-SA/DX5 (multidrug resistant carcinoma subline of MES-SA). The series is described as follows: SRB cytotoxicity test, MES-SA/DX5. Particulars: for IC50: Homo sapiens, MES-SA/Dx5, 48 h. The class given is cell-based, human. How it is done: (§1) To determine the cytotoxicity against human tumor cell line of the test samples prepared in Examples, following sulforhodamin B (SRB) bioassy test was performed according to the method disclosed in the literature (Skehan, P., et al., J. Natl. Cancer Inst., 82, 1990, 1107-1112).
(§2) Various human tumor cell lines, i.e., A-549 (human adenocarcinoma of lung, NCI), SK-OV-3 (human ovarian tumor, NCI), SK-MEL-2 (human malignant melanoma, NCI), HCT15 (human colon adenocarcinoma, NCI), MES-SA (human uterine carcinoma, NCI) and MES-SA/DX5 (multidrug resistant carcinoma subline of MES-SA, NCI) were used in the test.
(§3) The subcultured cell lines were detached from the surface of wall using by trypsin-EDTA solution and adjusted to various concentration of cell lines, i.e., 5×10^3 cells/well (A-549, HCT15), 1×10^4 cells/well (SK-MEL-2), 5×10^3 cells/well (SK-OV-3) in 96-well flat bottom microplate. The inoculated cell lines were incubated in CO2 incubator (MCO-20AIC, SANYO Electric Co., LTd.) to be attached on the bottom of incubator and the culture media was removed with aspirator. 6 logarithmic concentrations of the diluted test samples were added to each well containing cell line at 100 μl/well in a three fold dilution manner and the cell was incubated for 48 hours. The culture media in each well was removed and 100μ of 10% trichloroacetic acid was added thereto to be left alone at 4° C. for 1 hour and to fix the cells to the bottom of the plates. […] The cell plates were shaked with titer plate shaker (KOMA Orbital Shaker KE011, KOMABIOTech) for 10 mins to exude the staining solution and to determine the absorbance at 520 nm using by microplate spectrophotometer (Sunrise, TECAN).

Series [3] deals with MES-SA (human uterine carcinoma). The series is described as follows: SRB cytotoxicity test, MES-SA. The format is cell-based. Particulars: for IC50: Homo sapiens, MES-SA, 48 h, read-out: Cytotoxicity IC50, MES-SA. The protocol:
as §1, §2, §3

Series [4] deals with HPV16 PVs. The series is described as follows: Virus inhibition test (in vitro), SEAP activity of 293TT cells infected with HPV pseudovirion. The format is cell-based. Particulars: Human papillomavirus 16, read-out: inhibitory activity from HPV16 PVs. The protocol: Prior to in vitro antiviral assay, 5×10^3 of 293TT cell was seeded on 96-well plate and incubated at 37° C. for 16 hours in 5% CO2 atmosphere. The culture media was removed and each extract was diluted to the concentration of 100 μg/ml or 50 μg/ml to distribute into each cell at the dose of 100 μl/cell. After treating with the extract for 16 hours, the culture media was removed and the cell was washed with PBS twice. The cell was infected by 106RLU/ml of HPV PVs at the dose of 100 μl/cell and incubated for 48 hours at 37° C. in 5% CO2 atmosphere. To determine the viral activity, the supernatant of the cell culture was used for determine the activity of secreted alkaline phosphatase (SEAP) using by Great EscAPE™ SEAP Chemiluminescence Kit (631738, Clontech, CA, USA). To determine the SEAP activity, relative light units (RLU) value was obtained using by Luminescence coulter (Micro beta triLux 1450, PerkinElmer, CT, USA) and the RLU values of the cell treated with the extract and untreated with the extract, were compared with each other. The decrease of SEAP activity was regarded as the inhibition effect against HPV PVs.
To determine the inhibitory effect on luciferase-comprising HPV virus contagion of the test samples prepared in Examples, following test was performed according to the method disclosed in the literature (Shaneyfelt et al., Virology Journal, 3:68, 2006, 1-11; Roden et al., J. Virol., 70, 1996, 5875-5883; Unckell et al., J. Virol., 71, 1997, 2934-2939; Touze et al., Nucleic Acids Research, 26, 1998, 1317-1323; Selinka et al., J. Virol., 77, 2003, 12961-12967; Klasse et al., Journal of General Virology, 83, 2002, 2091-2108)
5×10^3293TT cell was seeded on 96-well plate and incubate for 16 hours. 50 μg of test sample was mixed with the culture media in the concentration of 100 ug/ml and incubated for 16 hours. The media was washed with 100 μl of PBS twice and the cell was infected with 10^6RLU/ml of HPV pseudovirion at the dose of 100 μl/cell to incubate at 37° C., for 48 hours in 5% CO2 atmosphere.
5× lysis buffer in Great EscAPE™ SEAP Chemiluminescence Kit (631738, Clontech, CA, USA) was made to 1× and both of 45 μl of 1× lysis buffer and 15 μl of cell culture medium were added to 96-well plate (3912, Costar, NY, USA). 60 μl of the substrate in Great EscAPE™ SEAP Chemiluminescence kit was added thereto and the relative light units (RLU) value was obtained using by Luminescence coulter (Micro beta triLux 1450, PerkinElmer, CT, USA). The RLU values of the cell treated with the extract and untreated with the extract, were compared with each other and the decrease of SEAP activity was regarded as the inhibition effect against HPV PVs.

The subject of series [5] is HCT15 (human colon adenocarcinoma). The series is described as follows: SRB cytotoxicity test, HCT15. Particulars: for IC50: Homo sapiens, HCT-15, 48 h, read-out: Cytotoxicity IC50, HCT15. The class given is cell-based. How it is done: as §1, §2, §3
Series [6] deals with A-549 (human adenocarcinoma of lung). The series is described as follows: SRB cytotoxicity test, A-549. The class given is cell-based. Particulars: for IC50: Homo sapiens, A549, Table 3, 48 hours, read-out: Cytotoxicity IC50, A-549. How it is done: as §1, §2, §3
Series [7] deals with SK-MEL-2 (human malignant melanoma). The series is described as follows: SRB cytotoxicity test, SK-MEL-2. The format is cell-based. Particulars: for IC50: Homo sapiens, SK-MEL-2, Table 3, 48 hours, read-out: Cytotoxicity IC50, SK-MEL-2. How it is done: as §1, §2, §3
Series [8] has as its system SK-OV-3 (human ovarian tumor). The series is described as follows: SRB cytotoxicity test, SK-OV-3. The class given is cell-based. Particulars: for IC50: Homo sapiens, SK-OV-3, Table 3, 48 hours, read-out: Cytotoxicity IC50, SK-OV-3. The protocol:
as §1, §2, §3

[9] abbreviates: read-out: Cytotoxicity IC50, MES-SA/DX5.

Values after ≈ are worked out from the molar mass of the structure shown. Like-named read-outs stand apart in the source and are kept apart here.

With `C[C@@]1(C(=O)O)CCC[C@]2(C)c3ccc(O)cc3CCC12` (stereo partly drawn) [compound (e), 13-hydroxy-8,11,13-podocarpatrien-18-oic acid], the IC50 is 26.4 µg/mL (≈ 96.1 µM) in series [1]; 25.8 µg/mL (≈ 94.2 µM) in series [2] (setting [9]); greater than 30 µg/mL in series [3] (Table 4, 48 hours); greater than 30 µg/mL in series [5] (Table 4, 48 hours). Moreover, the inhibition at 50 µg/mL in series [4] was 70 to 80%.
With `C=C1CCC2C(C)(C(=O)O)CCCC2(C)C1CCC(C)CC(=O)O` (stereo not drawn) [compound (c), ent-labd-8(17)-ene-15,18-dioic acid], the “Cytotoxicity IC50, HCT15/CL02” value in series [1] worked out at 21.47 µg/mL. Moreover, in series [2] (Table 4, 48 hours), the “Cytotoxicity IC50, MES-SA/DX5” value is greater than 30.0 µg/mL. Besides, the “Cytotoxicity IC50, MES-SA” value in series [3] was greater than 30.0 µg/mL. In addition, the “Cytotoxicity IC50, HCT15” value in series [5] is greater than 30.0 µg/mL.
In the case of `CC(C)(O)c1ccc2c(c1)C(=O)C[C@H]1[C@](C)(C(=O)O)CCC[C@]21C` [compound (g), 7-oxo-15-hydroxydehydroabietic acid], the IC50 is greater than 30 µg/mL in series [1]; greater than 30 µg/mL in series [2] (setting [9]); greater than 30 µg/mL in series [3] (Table 4, 48 hours); greater than 30 µg/mL in series [5] (Table 4, 48 hours). Besides, the inhibition at 50 µg/mL in series [4] lay within 70 to 80%.
Turning to `CC(C)c1ccc2c(c1)[C@H](O)CC1[C@](C)(C(=O)O)CCC[C@]21C` (stereo partly drawn) [compound (f), 7α-hydroxycallitirisic acid], the IC50 was greater than 30 µg/mL in series [1]; 27.4 µg/mL (≈ 86.7 µM) in series [2] (setting [9]); 26.8 µg/mL (≈ 84.7 µM) in series [3] (Table 4, 48 hours); greater than 30 µg/mL in series [5] (Table 4, 48 hours). For the same compound, the inhibition at 50 µg/mL in series [4] lay within 70 to 80%.
Take `C=C1CCC2[C@](C)(C(=O)O)CCC[C@]2(C)[C@H]1CC[C@H](C)CCO` (stereo partly drawn) [compound (b), (13S)-15-hydroxylabd-8(17)-en-18-oic acid]: the IC50 in series [1] came out at 12.8 µg/mL (≈ 39.8 µM); in series [2] (setting [9]), 11.5 µg/mL (≈ 35.7 µM); in series [3] (Table 4, 48 hours) it was 19.1 µg/mL (≈ 59.1 µM); in series [5] (Table 4, 48 hours) it was 20.2 µg/mL (≈ 62.5 µM). The inhibition at 50 µg/mL in series [4] was in the range of 70 to 80%.
Turning to “9,14-dihydroxytotara-7-ene-8-oic acid [compound (a)]”, in series [6], the “Cytotoxicity IC50, A-549” value came to 127.16 µg/mL. In series [7], the “Cytotoxicity IC50, SK-MEL-2” value was 99.45 µg/mL. In addition, the “Cytotoxicity IC50, SK-OV-3” value in series [8] was 120.05 µg/mL. In addition, the “Cytotoxicity IC50, HCT15” value in series [5] turned out to be 117.31 µg/mL.
`C=C[C@]1(C)CCC2[C@@]3(C)CCC[C@@](C)(CO)C3CC[C@@]2(C)O1` (single isomer, unassigned; ent-18) [compound (h), ent-18-hydrorxy-13-epimanoyl oxide]: the IC50 in series [6] is 13.3 µg/mL (≈ 43.5 µM); in series [7] it was 11.3 µg/mL (≈ 36.7 µM); in series [2] (setting [9]), 9.54 µg/mL (≈ 31.1 µM); in series [3] (Table 3, 48 hours) it was 8.17 µg/mL (≈ 26.7 µM); in series [8] it was 12.7 µg/mL (≈ 41.4 µM); in series [5] (Table 3, 48 hours), 10 µg/mL (≈ 32.8 µM). Moreover, the inhibition at 50 µg/mL in series [4] lay in the range of 70 to 80%.
With `CC(C)(O)c1ccc2c(c1)CC[C@H]1[C@](C)(C(=O)O)CCC[C@]21C` [compound (k), 15-hydroxydehydroabietic acid], the IC50 was 109 µg/mL (≈ 345 µM) in series [6]; 88.8 µg/mL (≈ 281 µM) in series [7]; 91.9 µg/mL (≈ 290 µM) in series [2] (setting [9]); 90.7 µg/mL (≈ 286 µM) in series [3] (Table 3, 48 hours); 142 µg/mL (≈ 448 µM) in series [8]; 98.2 µg/mL (≈ 310 µM) in series [5] (Table 3, 48 hours). Besides, the inhibition at 50 µg/mL in series [4] lay in the range of 70 to 80%.
As for `C=C1CCC2[C@](C)(C(=O)O)CCC[C@]2(C)[C@H]1/C=C/C(C)=O` (stereo partly drawn) [compound (d), 13-oxo-15,16-dinorlabda-8(17),11E-dien-19-oic acid], the IC50 in series [1] was 27.6 µg/mL (≈ 95.2 µM); in series [2] (read-out: Cytotoxicity IC50, MES-SA/DX5, Table 4, 48 hours), greater than 30 µg/mL; in series [3] (Table 4, 48 hours) it was greater than 30 µg/mL; in series [5] (Table 4, 48 hours), greater than 30 µg/mL. Besides, the inhibition at 50 µg/mL in series [4] is 70 to 80%.
Consider `C=C1CC[C@H]2O[C@]2(C)CC[C@@H]2[C@@H]1CC2(C)C` [compound (l), caryophyllene oxide], for which the IC50 was 36.4 µg/mL (≈ 165 µM) in series [6]; 18.6 µg/mL (≈ 84.6 µM) in series [7]; 17.7 µg/mL (≈ 80.5 µM) in series [2] (setting [9]); 15.2 µg/mL (≈ 69.2 µM) in series [3] (Table 3, 48 hours); 23.7 µg/mL (≈ 108 µM) in series [8]; 26.8 µg/mL (≈ 121 µM) in series [5] (Table 3, 48 hours). Moreover, in series [4], the inhibition at 50 µg/mL lay within 70 to 80%.

The values above are taken from patent US20140363530A1, “COMPOSITION COMPRISING THE EXTRACT OF PINE TREE LEAF OR THE COMPOUNDS ISOLATED THEREFROM FOR THE PREVENTION AND TREATMENT OF CANCER DISEASE BY INHIBITING HPV VIRUS AND THE USES THEREBY” (priority 2012, published 2014).
